Test results: ChEMBL document CHEMBL3102748, “Structure-activity relationship studies on acremomannolipin A, the potent calcium signal modulator with a novel glycolipid structure 2: Role of the alditol side chain stereochemistry” (Bioorg Med Chem, 2014)
Calls of active or inactive are those of the source. No cut-off for these calls is given here.

System: Schizosaccharomyces pombe
Assay: Induction of calcium signaling pathway-mediated cell growth in ppb1-deficient Schizosaccharomyces pombe h+ leu1 ura4-D18 ppb1::ura4+ at 100 uM after 3 days by filter paper disc method in presence of MgCl2
Format: functional, organism-based

SMILES | Activity
CCCCCCCC(=O)O[C@@H]1[C@H](OC[C@H](O)[C@@H](O)[C@@H](O)[C@H](O)CO)O[C@H](COC(=O)CCCCC)[C@@H](OC(=O)CCCCC)[C@@H]1OC(=O)CCCCC | Active
CCCCCCCC(=O)O[C@@H]1[C@H](OC[C@@H](O)[C@@H](O)[C@H](O)[C@H](O)CO)O[C@H](COC(=O)CCCCC)[C@@H](OC(=O)CCCCC)[C@@H]1OC(=O)CCCCC | Active
CCCCCCCC(=O)O[C@@H]1[C@H](OC[C@@H](O)[C@@H](O)[C@H](O)[C@@H](O)CO)O[C@H](COC(=O)CCCCC)[C@@H](OC(=O)CCCCC)[C@@H]1OC(=O)CCCCC | Active
CCCCCCCC(=O)O[C@@H]1[C@H](OC[C@@H](O)[C@H](O)[C@@H](O)[C@@H](O)CO)O[C@H](COC(=O)CCCCC)[C@@H](OC(=O)CCCCC)[C@@H]1OC(=O)CCCCC | Active
CCCCCCCC(=O)O[C@@H]1[C@H](OC[C@@H](O)[C@H](O)[C@H](O)[C@@H](O)CO)O[C@H](COC(=O)CCCCC)[C@@H](OC(=O)CCCCC)[C@@H]1OC(=O)CCCCC | Active
CCCCCCCC(=O)O[C@@H]1[C@H](OC[C@H](O)[C@@H](O)[C@H](O)[C@H](O)CO)O[C@H](COC(=O)CCCCC)[C@@H](OC(=O)CCCCC)[C@@H]1OC(=O)CCCCC | Active
